Results published in the supplement of paper PMC12613149.

Key:
[1] = collision cross section (TIMS, N2 drift gas) of the primary ion; higher = larger gas-phase ion size
[2] = reversed-phase LC retention time (C18, 15 min MeOH gradient); higher = more hydrophobic / later elution
[3] = ionization mode: ESI+, ion species: [M+H]+
[4] = ionization mode: ESI-, ion species: [M-H]-
[5] = ionization mode: ESI+, ion species: [M]+

collision cross section [1, 3] | reversed-phase LC retention time [2, 3] | collision cross section [1, 4] | reversed-phase LC retention time [2, 4] | collision cross section [1, 5] | reversed-phase LC retention time [2, 5] | Compound
188.49 Å² | 11.5 min | 184.59 Å² | 12.4 min | – | – | Cc1cccc(Nc2ccncc2S(=O)(=O)NC(=O)NC(C)C)c1 [Torasemide]
– | – | 175.03 Å² | 14.5 min | – | – | CC/C(=C(/CC)c1ccc(O)cc1)c1ccc(O)cc1 [Diethylstilbestrol]
167.87 Å² | 12.7 min | – | – | – | – | C=CCOC(Cn1ccnc1)c1ccc(Cl)cc1Cl (stereo not given) [Imazalil]
– | – | 232.61 Å² | 19.9 min | – | – | CCCCCCCCCCC[C@@H](C[C@@H]1OC(=O)[C@H]1CCCCCC)OC(=O)[C@H](CC(C)C)NC=O [Orlistat]
152.41 Å² | 14.3 min | – | – | – | – | CCN(CC)c1ccc2c(C)cc(=O)oc2c1 [7-Diethylamino-4-methylcoumarin]
159.08 Å² | 16.1 min | – | – | – | – | CCCCCCCCCC(=O)N(C)C [N,N-Dimethyldecan-1-amide]
179.07 Å² | 11.1 min | 176.43 Å² | 13.3 min | – | – | CCc1ccc(CCOc2ccc(CC3SC(=O)NC3=O)cc2)nc1 (stereo not given) [Pioglitazone]
201.04 Å² | 13.3 min | 204 Å² | 13 min | – | – | CCCCc1nc(Cl)c(CO)n1Cc1ccc(-c2ccccc2-c2nn[nH]n2)cc1 [Losartan]
– | – | 173.91 Å² | 14.5 min | – | – | C[C@]12CC[C@@H]3c4ccc(O)cc4CC[C@H]3[C@@H]1CC[C@H]2O [17-alpha-Estradiol]
175.13 Å² | 12.6 min | – | – | – | – | C[C@]12CCC3=C4CCC(=O)C=C4CC[C@H]3[C@@H]1CC[C@@]2(O)CC#N [Dienogest]
– | – | – | – | 196.05 Å² | 16 min | CCCCCCCCCCCC[N+](C)(C)Cc1ccccc1 [Benzyldimethyldodecylammonium]
138.83 Å² | 9.74 min | – | – | – | – | CC(C)Nc1nc(N)nc(Cl)n1 [Atrazine desethyl]
– | – | 201.31 Å² | 7.66 min | – | – | O=c1c(O[C@@H]2O[C@H](CO)[C@H](O)[C@H](O)[C@H]2O)c(-c2ccc(O)c(O)c2)oc2cc(O)cc(O)c12 [Hyperin]
136.53 Å² | 11.1 min | – | – | – | – | O=c1c2ccccc2[nH]c2ccccc12 [Acridone]
138.51 Å² | 8.82 min | – | – | – | – | NC12CC3CC(CC(C3)C1)C2 [Amantadine]
177.48 Å² | 18.5 min | – | – | – | – | CCCCCCCC/C=C\CCCCCCCC(N)=O [Oleic acid amide]
161.62 Å² | 11.2 min | 162.3 Å² | 6.27 min | – | – | O=C(O)c1ccc(-c2ccccc2-c2nnn[nH]2)cc1 [Valsartan acid]

Compound | collision cross section [1, 3] | reversed-phase LC retention time [2, 3] | collision cross section [1, 4] | reversed-phase LC retention time [2, 4] | collision cross section [1, 5] | reversed-phase LC retention time [2, 5]
O=C1CCCC2C3CC(CN12)C1CCCCN1C3 (stereo not given) [Lupanine] | 154.3 Å² | 5.52 min | – | – | – | –
Nc1cnn(-c2ccccc2)c(=O)c1Cl [4-Amino-5-chloro-1-phenyl-6-pyridazone] | 143.41 Å² | 9.16 min | 141.68 Å² | 9.26 min | – | –
Cc1ccc(OP(=O)(Oc2ccc(C)cc2)Oc2ccc(C)cc2)cc1 [Tricresylphosphate] | 190.01 Å² | 17.2 min | – | – | – | –
